Earlier results, collected in patent publication US20120282187A1 (BOEHRINGER INGELHEIM INTERNATIONAL GMBH, priority 2008, published 2012).

Columns and labels:
[1] = system: patients with atrial fibrillation; conditions: sub-cutaneous; cited from earlier work
[2] = system: patients with non-valvular atrial fibrillation; conditions: in vivo; cited from earlier work

Compound | efficacy compared to warfarin [1] | risk of bleeding compared to warfarin [1] | hepatotoxicity [2]
CO[C@H]1O[C@H](COS(=O)(=O)O)[C@@H](O[C@@H]2O[C@@H](C(=O)O)[C@@H](O[C@H]3O[C@H](COS(=O)(=O)O)[C@@H](O[C@@H]4O[C@H](C(=O)O)[C@@H](O[C@H]5O[C@H](COS(=O)(=O)O)[C@@H](OC)[C@H](OC)[C@H]5OC)[C@H](OC)[C@H]4OC)[C@H](OS(=O)(=O)O)[C@H]3OS(=O)(=O)O)[C@H](OC)[C@H]2OC)[C@H](OS(=O)(=O)O)[C@H]1OS(=O)(=O)O [idraparinux] | more effective than warfarin | substantially higher risk of bleeding | –
CCOC(=O)CN[C@@H](C(=O)N1CC[C@H]1C(=O)NCc1ccc(/C(N)=N\O)cc1)C1CCCCC1 [ximelagatran] | – | – | hepatotoxic
